Literature values, collected in patent publication US6943160B2, “Morpholine derivatives as antagonists of orexin receptors” (SmithKline Beecham plc, priority 2000, dated 2005).

Columns and labels:
[1] = system: orexin receptors; conditions: central administration at onset of normal sleep period, rat
[2] = system: freely-feeding rats; conditions: central administration, 4 hour time period

orexin-A: ligand (agonist) of the orexin receptors; human orexin-A has sequence SEQ ID NO: 1, pyroEPLPDCCRQKTCSCRLYELLHGAGNHAAGILTL-NH2
effect on arousal [1]: dose-related increase in arousal | increase in food intake over control rats receiving vehicle [2]: approximately four-fold
